Reference: paper PMC8320603 (Current Research in Toxicology, 2021)
Read-outs that look alike come from different tables or passages of the source.

Columns and labels:
plasma proteins [1] = assay: Human plasma rapid equilibrium dialysis; type: in vitro ADME; conditions: pooled human plasma, 4 h of shaking, 10 µM, monitored drug alone
[2] = system: cryopreserved pooled human primary hepatocytes
plasma proteins [3] = conditions: cited from earlier work
CYP2D6 = CYP2D6 (Homo sapiens, UniProt P10635); assay: CYP screening of gefitinib and erlotinib with human pooled supersomes; type: in vitro ADME; conditions: 10 µM
CYP1A2 = target: T1, CYP1A2 (Homo sapiens, UniProt P05177); assay: as above; type: in vitro ADME; conditions: 10 µM, at 60 min
T1 sequence (P05177 1-516): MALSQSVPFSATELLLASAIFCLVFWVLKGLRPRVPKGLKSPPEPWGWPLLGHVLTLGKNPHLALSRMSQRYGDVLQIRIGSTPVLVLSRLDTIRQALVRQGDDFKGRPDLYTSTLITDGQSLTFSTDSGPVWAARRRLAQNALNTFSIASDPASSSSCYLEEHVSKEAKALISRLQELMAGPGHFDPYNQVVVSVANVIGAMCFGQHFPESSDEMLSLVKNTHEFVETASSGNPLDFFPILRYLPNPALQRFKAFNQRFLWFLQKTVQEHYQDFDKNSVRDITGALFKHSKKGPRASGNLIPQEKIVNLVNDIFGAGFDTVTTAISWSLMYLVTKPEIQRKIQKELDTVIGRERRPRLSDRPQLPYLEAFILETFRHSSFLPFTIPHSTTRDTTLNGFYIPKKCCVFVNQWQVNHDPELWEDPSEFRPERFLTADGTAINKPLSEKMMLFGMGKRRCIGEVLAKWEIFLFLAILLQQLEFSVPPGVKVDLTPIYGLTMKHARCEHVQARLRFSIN

CYP3A4 = CYP3A4 (Homo sapiens, UniProt P08684); conditions: supersomes, 10 µM, at 60 min
[4] = 4 h, 10 µM each, monitored drug + Erl
[5] = 4 h, 10 µM each, monitored drug + Gef
[6] = 4 h incubation, 10 µM, monitored drug alone
[7] = 4 h, 10 µM each, monitored drug + Flx
[8] = 4 h, 10 µM each, monitored drug + Flx + Los
[9] = 4 h, 10 µM each, monitored drug + Los

Sequence of CYP2D6 (P10635 whole entry): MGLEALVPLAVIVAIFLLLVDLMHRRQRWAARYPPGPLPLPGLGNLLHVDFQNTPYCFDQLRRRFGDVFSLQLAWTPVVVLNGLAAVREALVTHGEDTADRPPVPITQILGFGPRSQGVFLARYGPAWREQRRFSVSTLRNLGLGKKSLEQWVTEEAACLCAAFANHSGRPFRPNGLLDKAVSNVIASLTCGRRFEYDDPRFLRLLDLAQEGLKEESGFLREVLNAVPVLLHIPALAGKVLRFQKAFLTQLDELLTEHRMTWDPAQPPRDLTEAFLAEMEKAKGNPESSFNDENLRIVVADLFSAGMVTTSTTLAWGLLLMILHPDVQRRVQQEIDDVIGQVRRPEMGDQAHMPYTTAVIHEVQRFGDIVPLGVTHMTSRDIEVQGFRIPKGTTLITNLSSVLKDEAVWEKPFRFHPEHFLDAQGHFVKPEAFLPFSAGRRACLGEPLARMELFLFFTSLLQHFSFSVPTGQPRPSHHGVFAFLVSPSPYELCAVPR
Sequence of CYP3A4 (P08684 whole entry): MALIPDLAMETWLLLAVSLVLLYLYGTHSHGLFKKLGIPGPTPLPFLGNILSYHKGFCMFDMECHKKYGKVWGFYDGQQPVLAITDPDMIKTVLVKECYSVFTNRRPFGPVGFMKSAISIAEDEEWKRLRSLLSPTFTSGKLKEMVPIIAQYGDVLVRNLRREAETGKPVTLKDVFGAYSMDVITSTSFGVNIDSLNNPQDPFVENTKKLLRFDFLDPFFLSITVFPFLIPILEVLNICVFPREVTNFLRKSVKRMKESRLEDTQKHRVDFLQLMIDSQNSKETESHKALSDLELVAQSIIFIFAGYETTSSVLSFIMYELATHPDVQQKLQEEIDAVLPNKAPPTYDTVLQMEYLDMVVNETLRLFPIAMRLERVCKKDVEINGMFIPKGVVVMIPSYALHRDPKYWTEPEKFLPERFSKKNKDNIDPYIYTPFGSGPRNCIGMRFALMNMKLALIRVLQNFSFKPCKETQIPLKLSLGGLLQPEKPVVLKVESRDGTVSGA

| SMILES | RED Protein Binding, Binding (%) (plasma proteins [1]) | Parent remain (%) [2, 4] | Parent remain (%) ([2]; 4 h, 10 µM each, monitored drug + Erl + Flx) | Parent remain (%) [2, 5] | Parent remain (%) ([2]; 4 h, 10 µM each, monitored drug + Gef + Flx) | Parent remain (%) [2, 6] | plasma protein binding, % bound (plasma proteins [3]; literature value ref Sica et al., 2005) | Parent remain (%) ([2]; 4 h, 10 µM each, monitored drug + Erl + Los) | Parent remain (%) ([2]; 4 h, 10 µM each, monitored drug + Gef + Los) | plasma protein binding, % bound (plasma proteins [3]; literature value ref Van Harten 1993) | drug remaining (CYP2D6; CYP2D6 supersomes) | Parent remain (%) [2, 7] | Parent remain (%) [2, 8] | Parent remain (%) [2, 9] | plasma protein binding, % bound (plasma proteins [3]; literature value ref Li et al., 2006) | metabolism by CYP1A2 (CYP1A2) | metabolism by CYP2D6 (CYP2D6; supersomes, at 60 min) | metabolism by CYP3A4 (CYP3A4) | plasma protein binding, % bound (plasma proteins [3]; literature value ref Christiansen et al., 2009) |
| --- | --- | --- | --- | --- | --- | --- | --- | --- | --- | --- | --- | --- | --- | --- | --- | --- | --- | --- | --- |
| CCCCc1nc(Cl)c(CO)n1Cc1ccc(-c2ccccc2-c2nn[nH]n2)cc1 [Losartan] | > 95% | 89 ± 10% | 99 ± 4% | 89 ± 4% | 112 ± 13% | 77 ± 6% | greater than 98% | – | – | – | – | – | – | – | – | – | – | – | – |
| CNCCC(Oc1ccc(C(F)(F)F)cc1)c1ccccc1 (stereo not drawn) [Fluoxetine] | 95 ± 1% | 102 ± 1% | – | 87 ± 10% | – | 75 ± 9% | – | 121 ± 3% | 122 ± 16% | 95% | – | – | – | – | – | – | – | – | – |
| COc1cc2ncnc(Nc3ccc(F)c(Cl)c3)c2cc1OCCCN1CCOCC1 [Gefitinib] | > 95% | – | – | – | – | 65 ± 2% | – | – | – | – | less than 80% | 72 ± 10% | 96 ± 4% | 58 ± 3% | ~ 97% | – | – | – | – |
| C#Cc1cccc(Nc2ncnc3cc(OCCOC)c(OCCOC)cc23)c1 [Erlotinib] | 96 ± 0% | – | – | – | – | 62 ± 13% | – | – | – | – | – | 75 ± 3% | 86 ± 9% | 63 ± 2% | – | significantly metabolized | significantly metabolized | significantly metabolized | 95% |
